According to ChEMBL document CHEMBL1201862, “PubChem BioAssay data set” (2004):
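All cell lines were grown in 96-well plates and treated with compound for 48 hours. GI50 marks 50% less growth.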 The source made the active and inactive calls. Cut-off read from the data, not from the text of the source: active = GI50 up to about 1.1 µM and inactive = higher.

What was measured:
Experiment in all cases: NCI tumour cell line growth inhibition, 48 h
LOX IMVI = test system: LOX IMVI
SF-295 = test system: SF-295
HT-29 = test system: HT-29
KM12 = test system: KM12
NCI-H522 = test system: NCI-H522
OVCAR-3 = test system: OVCAR-3
OVCAR-5 = test system: OVCAR-5
SF-268 = test system: SF-268
TK-10 = test system: TK-10
EKVX = test system: EKVX
SN12C = test system: SN12C
NCI/ADR-RES = test system: NCI/ADR-RES
HL-60 = test system: HL-60
HCC 2998 = test system: HCC 2998
UACC-257 = test system: UACC-257
MDA-N = test system: MDA-N
Malme-3M = test system: Malme-3M
Hs-578T = test system: Hs-578T

Measured: GI50

CCC1C(C#N)=C(N)OC2=C1C(=O)CC(C)(C)C2 (stereo not given)
inactive: LOX IMVI > 100 µM | SF-295 > 100 µM | HT-29 > 100 µM | KM12 > 100 µM | NCI-H522 > 100 µM | OVCAR-3 > 100 µM | OVCAR-5 > 100 µM | SF-268 > 100 µM | TK-10 > 100 µM | EKVX > 100 µM | SN12C > 100 µM | NCI/ADR-RES > 100 µM | HL-60 > 100 µM | HCC 2998 > 100 µM | UACC-257 35.9 µM | MDA-N > 100 µM | Malme-3M > 100 µM | Hs-578T > 100 µM

O=C(O)CCc1nc2ccccc2[nH]1 [PROCODAZOLE]
inactive: LOX IMVI > 100 µM | SF-295 > 100 µM | HT-29 > 100 µM | KM12 > 100 µM | NCI-H522 > 100 µM | OVCAR-3 > 100 µM | OVCAR-5 > 100 µM | SF-268 > 100 µM | TK-10 > 100 µM | EKVX > 100 µM | SN12C > 100 µM | NCI/ADR-RES > 100 µM | HL-60 > 100 µM | HCC 2998 > 100 µM | UACC-257 > 100 µM | MDA-N > 100 µM | Malme-3M > 100 µM | Hs-578T > 100 µM

C[C@H](CCc1nc(C#N)c(N)o1)[C@H]1CC[C@H]2[C@@H]3[C@@H](O)CC4C[C@@H](O)CC[C@]4(C)[C@H]3C[C@@H](O)[C@]12C (stereo not given in full)
inactive: LOX IMVI 12.1 µM | SF-295 22.8 µM | HT-29 20.2 µM | KM12 17.7 µM | NCI-H522 4.03 µM | OVCAR-3 17.7 µM | OVCAR-5 23.3 µM | SF-268 20.2 µM | TK-10 24.2 µM | EKVX 28.3 µM | SN12C 20.6 µM | NCI/ADR-RES > 78.9 µM | HL-60 3.62 µM | HCC 2998 19.1 µM | UACC-257 19.7 µM | MDA-N 25.9 µM | Malme-3M 7.38 µM | Hs-578T 20.5 µM

COc1ccc2c3c1OC1C(=O)C=CC4(O)C(C2)NCC[C@@]314 (stereo not given in full)
inactive: LOX IMVI 1.91 µM | SF-295 3.69 µM | HT-29 2.54 µM | KM12 2.84 µM | OVCAR-3 1.52 µM | OVCAR-5 2.46 µM | SF-268 2.07 µM | TK-10 1.68 µM | EKVX 2.3 µM | SN12C 1.51 µM | NCI/ADR-RES 4 µM | HL-60 1.8 µM | HCC 2998 2.1 µM | UACC-257 1.77 µM | MDA-N 1.26 µM | Hs-578T 2.19 µM
active: NCI-H522 0.556 µM | Malme-3M 0.964 µM

CC1(C)C2C=C(CCN3CCOCC3)CC1C2 (stereo not given)
inactive: LOX IMVI > 100 µM | SF-295 > 100 µM | HT-29 > 100 µM | KM12 > 100 µM | NCI-H522 > 100 µM | OVCAR-3 > 100 µM | OVCAR-5 > 100 µM | SF-268 > 100 µM | TK-10 > 100 µM | EKVX > 100 µM | SN12C > 100 µM | NCI/ADR-RES > 100 µM | HL-60 > 100 µM | HCC 2998 > 100 µM | UACC-257 > 100 µM | MDA-N > 100 µM | Malme-3M > 100 µM | Hs-578T > 100 µM

Cc1cc(=O)oc2cc(OC(=O)N(CCCl)CCCl)ccc12
inactive: LOX IMVI 59.8 µM | SF-295 > 100 µM | HT-29 > 100 µM | KM12 > 100 µM | NCI-H522 79.1 µM | OVCAR-3 > 100 µM | OVCAR-5 > 100 µM | SF-268 > 100 µM | TK-10 > 100 µM | EKVX > 100 µM | SN12C > 100 µM | NCI/ADR-RES 99.1 µM | HL-60 > 100 µM | HCC 2998 > 100 µM | UACC-257 > 100 µM | MDA-N > 100 µM | Malme-3M > 100 µM | Hs-578T > 100 µM

O=C(O)CCNC(=O)c1cc(N(CCBr)CCBr)c([N+](=O)[O-])cc1[N+](=O)[O-]
inactive: LOX IMVI > 100 µM | SF-295 > 100 µM | HT-29 > 100 µM | KM12 > 100 µM | NCI-H522 > 100 µM | OVCAR-3 > 100 µM | OVCAR-5 > 100 µM | SF-268 > 100 µM | TK-10 > 100 µM | EKVX > 100 µM | SN12C > 100 µM | NCI/ADR-RES > 100 µM | HL-60 > 100 µM | HCC 2998 > 100 µM | UACC-257 > 100 µM | MDA-N > 100 µM | Malme-3M > 100 µM | Hs-578T > 100 µM

COc1ncc(C#CC(=O)c2ccccc2)c(OC)n1
active: LOX IMVI 0.815 µM
inactive: SF-295 16.6 µM | HT-29 1.88 µM | KM12 6.85 µM | NCI-H522 1.27 µM | OVCAR-3 5.11 µM | OVCAR-5 5.04 µM | SF-268 10.4 µM | TK-10 1.67 µM | EKVX 3.51 µM | SN12C 1.4 µM | NCI/ADR-RES 2.72 µM | HL-60 1.23 µM | HCC 2998 6.12 µM | UACC-257 5.64 µM | MDA-N 1.71 µM | Malme-3M 1.67 µM | Hs-578T 24.5 µM

O=C(c1ccccc1)N1N=C(C(F)(F)F)CC1(O)C(F)(F)F (stereo not given)
inactive: LOX IMVI > 100 µM | SF-295 > 100 µM | HT-29 > 100 µM | KM12 > 100 µM | NCI-H522 > 100 µM | OVCAR-3 > 100 µM | OVCAR-5 > 100 µM | SF-268 > 100 µM | TK-10 > 100 µM | EKVX > 100 µM | SN12C > 100 µM | NCI/ADR-RES > 100 µM | HL-60 > 100 µM | HCC 2998 > 100 µM | UACC-257 > 100 µM | MDA-N > 100 µM | Malme-3M > 100 µM | Hs-578T > 100 µM

O=C(c1ccc(Cl)c(Cl)c1)N(Cc1cccnc1)C(=S)N(Cc1cccnc1)C(=O)c1ccc(Cl)c(Cl)c1
inactive: LOX IMVI 30.7 µM | SF-295 24.4 µM | HT-29 24 µM | KM12 28.1 µM | NCI-H522 20.9 µM | OVCAR-3 25.5 µM | OVCAR-5 29.2 µM | SF-268 36.1 µM | TK-10 29.9 µM | EKVX 40.6 µM | SN12C 24.1 µM | NCI/ADR-RES 31.3 µM | HL-60 49.3 µM | HCC 2998 20.5 µM | UACC-257 24.9 µM | MDA-N 23.9 µM | Malme-3M 52.8 µM | Hs-578T 40.6 µM

O=C1CC(c2ccco2)C2(C(=O)NC(=O)NC2=O)C(c2ccco2)C1 (stereo not given)
inactive: LOX IMVI > 75 µM | SF-295 > 75 µM | HT-29 > 75 µM | KM12 > 75 µM | NCI-H522 > 75 µM | OVCAR-3 > 75 µM | OVCAR-5 > 75 µM | SF-268 > 75 µM | TK-10 > 75 µM | EKVX > 75 µM | SN12C > 75 µM | NCI/ADR-RES > 75 µM | HL-60 > 75 µM | HCC 2998 > 75 µM | UACC-257 > 75 µM | MDA-N > 75 µM | Malme-3M > 75 µM | Hs-578T > 75 µM

CN(C)c1ccc(/C=C/C(=O)c2cc(C(C)(C)C)c(O)c(C(C)(C)C)c2)cc1
inactive: LOX IMVI 2.06 µM | OVCAR-5 2.99 µM | SF-268 2.66 µM | TK-10 1.23 µM | SN12C 3.13 µM | HL-60 2.29 µM | HCC 2998 1.64 µM | Malme-3M > 100 µM | Hs-578T 2.72 µM
active: SF-295 0.43 µM | HT-29 1.03 µM | KM12 0.641 µM | NCI-H522 0.482 µM | OVCAR-3 0.443 µM | EKVX 0.583 µM | NCI/ADR-RES 0.796 µM | UACC-257 0.321 µM | MDA-N 0.249 µM

COC(=O)c1c(O)ccc2c1c1cc3ccccc3cc1n2Cc1cc(OC)cc(OC)c1
inactive: LOX IMVI 9.31 µM | HT-29 11 µM | OVCAR-5 9.64 µM | SF-268 2.75 µM | TK-10 > 23.2 µM | EKVX 6.3 µM | SN12C 7.85 µM | NCI/ADR-RES 1.4 µM | HL-60 2.92 µM | HCC 2998 3.88 µM | UACC-257 9.73 µM | Malme-3M 1.22 µM | Hs-578T 2.45 µM
active: SF-295 1.11 µM | KM12 0.805 µM | NCI-H522 0.194 µM | OVCAR-3 0.339 µM | MDA-N 0.43 µM

O=C(O)/C=c1/c2ccccc2n2nc3ccccc3c12
inactive: LOX IMVI 21.9 µM | SF-295 30.8 µM | HT-29 39.3 µM | KM12 20.4 µM | NCI-H522 20.7 µM | OVCAR-3 33.5 µM | OVCAR-5 57.9 µM | SF-268 38.4 µM | TK-10 30.3 µM | EKVX 37.1 µM | SN12C 26.7 µM | NCI/ADR-RES 29.5 µM | HL-60 34.1 µM | HCC 2998 24.1 µM | UACC-257 20.9 µM | MDA-N 26 µM | Malme-3M 25.2 µM | Hs-578T 23.6 µM

N#C/C(=C/N1C(=O)/C(=C/c2ccc([N+](=O)[O-])cc2)SC1=S)c1nc2ccccc2s1
inactive: LOX IMVI 26.4 µM | SF-295 11.3 µM | HT-29 31.2 µM | KM12 28.2 µM | NCI-H522 12.6 µM | OVCAR-3 3.48 µM | OVCAR-5 29.1 µM | SF-268 24.7 µM | TK-10 26.9 µM | EKVX 18.4 µM | SN12C 23.5 µM | NCI/ADR-RES 32.7 µM | HL-60 17.5 µM | HCC 2998 14.2 µM | UACC-257 14.2 µM | MDA-N 24.4 µM | Malme-3M 25.8 µM | Hs-578T 29.6 µM
